Test results from ChEMBL document CHEMBL1201862, “PubChem BioAssay data set” (2004).
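Values below derive from 48-hour exposures of cells grown in 96-well plates, with endpoints linearly interpolated between the two concentrations bracketing the appropriate inhibition level. GI50 = concentration required for 50% inhibition of growth.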 Calls of active or inactive are those of the source. Rule as the data show it: active = GI50 up to about 1.1 µM and inactive = higher.

What was measured:
Test in all cases: inhibition of tumour cell growth, NCI panel, 48 h
[1] = test system: A549
[2] = test system: CAKI-1
[3] = test system: CCRF-CEM
[4] = test system: COLO 205
[5] = test system: EKVX
[6] = test system: HCT-15
[7] = test system: OVCAR-3
[8] = test system: OVCAR-4
[9] = test system: SF-268
[10] = test system: SK-MEL-5
[11] = test system: SK-OV-3
[12] = test system: SN12C
[13] = test system: SNB-19
[14] = test system: SNB-78
[15] = test system: UACC-257
[16] = test system: UACC-62
[17] = test system: SF-539
[18] = test system: MDA-MB-435
[19] = test system: NCI/ADR-RES
[20] = test system: T47D

Measured: GI50

O=C1C(Cl)C(c2ccc(Cl)cc2)N1n1cnc2ccccc2c1=O (stereo unspecified)
inactive: [1] > 100 µM | [2] 40.8 µM | [3] 48.6 µM | [4] > 100 µM | [5] 14.5 µM | [7] > 100 µM | [8] > 100 µM | [9] > 100 µM | [10] > 100 µM | [11] 33.8 µM | [12] > 100 µM | [13] > 100 µM | [14] > 100 µM | [15] > 100 µM | [16] 87.1 µM
92 µM: [6]

C=C1C(=O)C23C(O)C1CCC2C12CO[C@]3(O)[C@@H](O)C1C(C)(C)CCC2O (stereo partly specified)
inactive: [1] 18.5 µM | [2] 15.2 µM | [3] 1.63 µM | [4] 2.89 µM | [5] 15 µM | [7] 16.4 µM | [9] 13.9 µM | [17] 14.7 µM | [10] 22.4 µM | [11] 20.3 µM | [12] 14.3 µM | [13] 14.8 µM | [14] 6.55 µM | [15] 11.6 µM | [16] 11.9 µM
11.9 µM: [6]

N=C(N)Nc1nc2cc(N)ccc2o1
> 100 µM: [6]
inactive: [1] > 100 µM | [2] > 100 µM | [3] > 100 µM | [5] > 100 µM | [8] > 100 µM | [9] > 100 µM | [17] > 100 µM | [11] > 100 µM | [12] > 100 µM | [13] > 100 µM | [14] > 100 µM | [15] > 100 µM | [16] > 100 µM

CCc1ccccc1NC(=O)C(=O)C(C#N)c1ccccc1Cl (stereo unspecified)
inactive: [1] > 100 µM | [3] > 100 µM | [4] > 100 µM | [5] > 100 µM | [7] > 100 µM | [8] > 100 µM | [9] > 100 µM | [10] > 100 µM | [12] > 100 µM | [13] > 100 µM | [14] > 100 µM | [15] > 100 µM | [16] > 100 µM

CC(C)(C)S(=O)OC12CC3CC(CC(C3)C1)C2 (stereo unspecified)
inactive: [1] > 100 µM | [3] > 100 µM | [4] > 100 µM | [5] > 100 µM | [7] > 100 µM | [8] > 100 µM | [9] > 100 µM | [17] > 100 µM | [10] > 100 µM | [12] > 100 µM | [13] > 100 µM | [14] > 100 µM | [16] > 100 µM
> 100 µM: [6]

CC(=O)Nc1c(C)ccc2c1C(=O)c1ccccc1C2=O
> 100 µM: [6]
inactive: [1] > 100 µM | [2] 56.5 µM | [3] 80.4 µM | [4] > 100 µM | [8] > 100 µM | [9] > 100 µM | [17] > 100 µM | [10] > 100 µM | [11] > 100 µM | [12] > 100 µM | [14] > 100 µM | [15] > 100 µM | [16] > 100 µM

CNC(=O)C(C)Oc1ccc(OCC2CCCCC2)cc1 (stereo unspecified)
> 100 µM: [6]
inactive: [1] > 100 µM | [3] > 100 µM | [7] 26.4 µM | [8] > 100 µM | [9] > 100 µM | [17] > 100 µM | [10] 82.6 µM | [11] > 100 µM | [12] > 100 µM | [13] > 100 µM | [14] > 100 µM | [15] 61.1 µM | [16] > 100 µM

C/N=C(/NC)N(C)c1nc(=[N+](C)C)ss1.[O-][Cl+3]([O-])([O-])[O-]
92.7 µM: [6]
inactive: [1] > 100 µM | [2] 16.3 µM | [3] 61.9 µM | [5] > 100 µM | [7] > 100 µM | [9] > 100 µM | [17] > 100 µM | [10] > 100 µM | [11] > 100 µM | [12] > 100 µM | [13] > 100 µM | [14] 82.8 µM | [15] > 100 µM | [16] > 100 µM

CC1=NNC(=S)NCCCN2CCN(CCCNC(=S)NN=C(C)C=NNC(=S)NCCCN3CCN(CCCNC(=S)NN=C1)CC3)CC2
> 100 µM: [6]
inactive: [1] > 100 µM | [2] > 100 µM | [3] > 100 µM | [4] > 100 µM | [5] > 100 µM | [18] > 100 µM | [19] > 100 µM | [7] > 100 µM | [8] > 100 µM | [9] > 100 µM | [17] > 100 µM | [10] > 100 µM | [11] > 100 µM | [12] > 100 µM | [13] > 100 µM | [20] > 100 µM | [15] > 100 µM | [16] > 100 µM

Cc1cc(S(=O)(=O)Nc2nc(Nc3ccc(Cl)cc3)n[nH]2)c(S)cc1Cl
4.53 µM: [6]
inactive: [1] > 100 µM | [2] 36 µM | [3] > 100 µM | [4] 79.3 µM | [5] > 100 µM | [18] > 100 µM | [19] > 100 µM | [7] > 100 µM | [8] > 100 µM | [9] 75.5 µM | [17] > 100 µM | [10] > 100 µM | [11] > 100 µM | [12] > 100 µM | [13] 80.9 µM | [20] > 100 µM | [15] > 100 µM | [16] 18.9 µM

O=C1Nc2ccccc2C1=Nc1ccc(S(=O)(=O)Nc2nccs2)cc1
inactive: [1] > 100 µM | [2] > 100 µM | [3] > 100 µM | [4] > 100 µM | [5] > 100 µM | [18] 92.5 µM | [19] > 100 µM | [7] > 100 µM | [8] > 100 µM | [9] > 100 µM | [17] 48.3 µM | [10] > 100 µM | [11] > 100 µM | [12] > 100 µM | [13] > 100 µM | [20] > 100 µM | [15] > 100 µM | [16] > 100 µM
> 100 µM: [6]

COc1ccc(/C=C2/C(=O)C(c3ccccc3)N(c3ccccc3)C2=O)cc1OC (stereo unspecified)
> 10 µM: [6]
inactive: [1] > 10 µM | [2] > 10 µM | [3] > 10 µM | [4] > 10 µM | [5] > 10 µM | [18] > 10 µM | [19] > 10 µM | [7] > 10 µM | [8] > 10 µM | [9] > 10 µM | [17] > 10 µM | [11] > 10 µM | [12] > 10 µM | [13] > 10 µM | [20] > 10 µM | [15] > 10 µM | [16] > 10 µM
active: [10] 0.168 µM

CC(=O)Nc1ccc(CNc2cc(=O)n(C)c(=O)[nH]2)cc1
inactive: [1] > 100 µM | [2] > 100 µM | [3] > 100 µM | [4] > 100 µM | [5] > 100 µM | [18] > 100 µM | [19] > 100 µM | [7] > 100 µM | [8] > 100 µM | [9] > 100 µM | [17] > 100 µM | [10] > 100 µM | [11] > 100 µM | [12] > 100 µM | [13] > 100 µM | [20] > 100 µM | [15] > 100 µM | [16] > 100 µM
> 100 µM: [6]

CN1CCN(C)C1c1cccc(C2N(C)CCN2C)c1
inactive: [3] > 100 µM | [4] > 100 µM | [7] > 100 µM | [8] > 100 µM | [9] > 100 µM | [17] > 100 µM | [11] > 100 µM | [12] > 100 µM | [13] > 100 µM | [14] > 100 µM | [16] > 100 µM
> 100 µM: [6]

Oc1ccc(/C=C/c2cc(O)cc3c2C(c2cc(O)cc(O)c2)C(c2ccc(O)c(O)c2)O3)cc1 (stereo unspecified)
20 µM: [6]
inactive: [1] 45.6 µM | [2] 31.7 µM | [3] 8.34 µM | [4] 19.5 µM | [5] 25.3 µM | [18] 32.6 µM | [19] 31.8 µM | [7] 27.8 µM | [8] 16.8 µM | [9] 30.6 µM | [17] 34.4 µM | [10] 17.2 µM | [11] 32.5 µM | [12] 17.6 µM | [13] 18.6 µM | [20] 13.1 µM | [15] 25.3 µM | [16] 18.2 µM

CC(C)(C)c1cc(C(O)(C(F)(F)F)C(F)(F)F)c2c(c1)C(C(F)(F)F)(C(F)(F)F)OC(c1ccccc1)(C(C)(C)C)N2 (stereo unspecified)
active: [7] 0.637 µM
3.56 µM: [6]
inactive: [1] > 100 µM | [2] 4.02 µM | [4] 4.08 µM | [5] 5.18 µM | [8] 14.4 µM | [17] > 100 µM | [10] 2.45 µM | [11] 2.7 µM | [12] 4.85 µM | [13] 4.65 µM | [14] 8.28 µM | [15] 4.99 µM | [16] 3.66 µM

CC(C)C1CC(CO)(CNc2cc(Cl)nc(N)n2)C1 (stereo unspecified)
inactive: [1] 39.2 µM | [2] > 100 µM | [3] 75.7 µM | [4] > 100 µM | [5] 7.06 µM | [18] 46.1 µM | [19] 16.8 µM | [7] 17.9 µM | [8] 20.7 µM | [9] 5 µM | [17] 73.8 µM | [10] 3.55 µM | [11] > 100 µM | [12] > 100 µM | [13] > 100 µM | [15] 1.15 µM | [16] > 100 µM
22.5 µM: [6]
active: [20] 0.805 µM
